Test results taken from ChEMBL document CHEMBL4665655, “Highly tunable thiosulfonates as a novel class of cysteine protease inhibitors with anti-parasitic activity against Schistosoma mansoni” (Bioorg Med Chem, 2019).

System: not listed separately
Test: Aqueous stability of the compound in 0.1 M sodium phosphate buffer at pH 6 to 7 incubated under shaken condition by HPLC analysis
Type: physicochemical

Stabilty	SMILES
Stable	CN1CCN(C(=O)N[C@@H](Cc2ccccc2)C(=O)N[C@@H](CCc2ccccc2)CSS(=O)(=O)C2CCCCC2)CC1.O=C(O)C(F)(F)F

System: not listed separately
Test: Inhibition of cysteine protease in Schistosoma mansoni assessed as reduction in schistosomula viability incubated for 7 days by inverted microscopy analysis

SMILES	IC50
Cc1ccc(S(=O)(=O)SC[C@H](CCc2ccccc2)NC(=O)[C@H](Cc2ccccc2)NC(=O)N2CCN(C)CC2)cc1	26.9 µM
COc1ccc(S(=O)(=O)SC[C@H](CCc2ccccc2)NC(=O)[C@H](Cc2ccccc2)NC(=O)N2CCN(C)CC2)cc1.O=C(O)C(F)(F)F	13.6 µM
O[C@@H](c1cc(C(F)(F)F)nc2c(C(F)(F)F)cccc12)[C@H]1CCCCN1 [(S,R)-MEFLOQUINE]	0.4 µM
CN1CCN(C(=O)N[C@@H](Cc2ccccc2)C(=O)N[C@@H](CCc2ccccc2)CSS(=O)(=O)c2ccc([N+](=O)[O-])cc2)CC1.O=C(O)C(F)(F)F	14.7 µM
CN1CCN(C(=O)N[C@@H](Cc2ccccc2)C(=O)N[C@H](/C=C/S(=O)(=O)c2ccccc2)CCc2ccccc2)CC1 [K-777]	7.3 µM
CN1CCN(C(=O)N[C@@H](Cc2ccccc2)C(=O)N[C@@H](CCc2ccccc2)CSS(=O)(=O)c2ccccc2)CC1	21.4 µM
CN1CCN(C(=O)N[C@@H](Cc2ccccc2)C(=O)N[C@@H](CCc2ccccc2)CSS(=O)(=O)C2CCCCC2)CC1.O=C(O)C(F)(F)F	13.5 µM

System: not listed separately
Test: Aqueous stability of the compound in 0.1 M sodium phosphate buffer assessed as half life at pH 8 incubated under shaken condition by HPLC analysis
Type: physicochemical

half-life	SMILES
6 h	CN1CCN(C(=O)N[C@@H](Cc2ccccc2)C(=O)N[C@@H](CCc2ccccc2)CSS(=O)(=O)C2CCCCC2)CC1.O=C(O)C(F)(F)F

System: not listed separately
Test: Inhibition of cysteine protease in Schistosoma mansoni assessed as reduction in schistosomula viability incubated for 3 days by inverted microscopy analysis

SMILES	IC50
Cc1ccc(S(=O)(=O)SC[C@H](CCc2ccccc2)NC(=O)[C@H](Cc2ccccc2)NC(=O)N2CCN(C)CC2)cc1	41.1 µM
COc1ccc(S(=O)(=O)SC[C@H](CCc2ccccc2)NC(=O)[C@H](Cc2ccccc2)NC(=O)N2CCN(C)CC2)cc1.O=C(O)C(F)(F)F	44.9 µM
O[C@@H](c1cc(C(F)(F)F)nc2c(C(F)(F)F)cccc12)[C@H]1CCCCN1 [(S,R)-MEFLOQUINE]	2.4 µM
CN1CCN(C(=O)N[C@@H](Cc2ccccc2)C(=O)N[C@@H](CCc2ccccc2)CSS(=O)(=O)c2ccc([N+](=O)[O-])cc2)CC1.O=C(O)C(F)(F)F	29.3 µM
CN1CCN(C(=O)N[C@@H](Cc2ccccc2)C(=O)N[C@H](/C=C/S(=O)(=O)c2ccccc2)CCc2ccccc2)CC1 [K-777]	59.9 µM
CN1CCN(C(=O)N[C@@H](Cc2ccccc2)C(=O)N[C@@H](CCc2ccccc2)CSS(=O)(=O)c2ccccc2)CC1	64.4 µM
CN1CCN(C(=O)N[C@@H](Cc2ccccc2)C(=O)N[C@@H](CCc2ccccc2)CSS(=O)(=O)C2CCCCC2)CC1.O=C(O)C(F)(F)F	25.4 µM

System: not listed separately
Test: Aqueous stability of the compound in 0.1 M sodium phosphate buffer assessed as time taken for drug degradation at pH 7 to 8 incubated under shaken condition by HPLC analysis
Type: physicochemical

Time	SMILES
< 1 h	CN1CCN(C(=O)N[C@@H](Cc2ccccc2)C(=O)N[C@@H](CCc2ccccc2)CSS(=O)(=O)c2ccc([N+](=O)[O-])cc2)CC1.O=C(O)C(F)(F)F

System: not listed separately
Test: Aqueous stability of the compound in 0.1 M sodium phosphate buffer assessed as half life at pH 6 incubated under shaken condition by HPLC analysis
Type: physicochemical

half-life	SMILES
1 h	COc1ccc(S(=O)(=O)SC[C@H](CCc2ccccc2)NC(=O)[C@H](Cc2ccccc2)NC(=O)N2CCN(C)CC2)cc1.O=C(O)C(F)(F)F
1.45 h	CN1CCN(C(=O)N[C@@H](Cc2ccccc2)C(=O)N[C@@H](CCc2ccccc2)CSS(=O)(=O)c2ccc([N+](=O)[O-])cc2)CC1.O=C(O)C(F)(F)F

Molecular target: T1, Papain (Carica papaya, UniProt P00784)
T1 sequence (P00784 whole entry): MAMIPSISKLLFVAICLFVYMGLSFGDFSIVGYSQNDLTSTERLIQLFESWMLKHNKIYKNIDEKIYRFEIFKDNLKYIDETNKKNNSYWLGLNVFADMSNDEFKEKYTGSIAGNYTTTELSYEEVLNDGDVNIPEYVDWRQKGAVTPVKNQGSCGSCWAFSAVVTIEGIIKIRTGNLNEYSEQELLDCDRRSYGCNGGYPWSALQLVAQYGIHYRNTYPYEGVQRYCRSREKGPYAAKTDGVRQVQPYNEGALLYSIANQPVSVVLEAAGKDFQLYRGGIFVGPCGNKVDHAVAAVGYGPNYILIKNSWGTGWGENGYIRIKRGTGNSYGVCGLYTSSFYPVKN
Test: Inhibition of papaya papain assessed as reduction in p-nitoaniline release using Nalpha-benzoyl-L-arginine 4-nitroanilide hydrochloride as substrate measured after 1 hr

SMILES	IC50
Cc1ccc(S(=O)(=O)SC[C@H](CCc2ccccc2)NC(=O)[C@H](Cc2ccccc2)NC(=O)N2CCN(C)CC2)cc1	0.182 µM
CN1CCN(C(=O)N[C@@H](Cc2ccccc2)C(=O)N[C@@H](CCCNC(=N)N)CSS(=O)(=O)C2CCCCC2)CC1	0.106 µM
COc1ccc(S(=O)(=O)SC[C@H](CCc2ccccc2)NC(=O)[C@H](Cc2ccccc2)NC(=O)N2CCN(C)CC2)cc1.O=C(O)C(F)(F)F	0.148 µM
CN1CCN(C(=O)N[C@@H](Cc2ccccc2)C(=O)N[C@@H](CCc2ccccc2)CSS(=O)(=O)c2ccc([N+](=O)[O-])cc2)CC1.O=C(O)C(F)(F)F	0.186 µM
CN1CCN(C(=O)N[C@@H](Cc2ccccc2)C(=O)N[C@H](/C=C/S(=O)(=O)c2ccccc2)CCc2ccccc2)CC1 [K-777]	0.081 µM
CN1CCN(C(=O)N[C@@H](Cc2ccccc2)C(=O)N[C@@H](CCc2ccccc2)CSS(=O)(=O)c2ccccc2)CC1	0.19 µM
CN1CCN(C(=O)N[C@@H](Cc2ccccc2)C(=O)N[C@@H](CCc2ccccc2)CSS(=O)(=O)C2CCCCC2)CC1.O=C(O)C(F)(F)F	0.168 µM

Further lines, results first:

IC50	SMILES
0.168 µM	CN1CCN(C(=O)N[C@@H](Cc2ccccc2)C(=O)N[C@@H](CCCNC(=N)N)CSS(=O)(=O)c2ccccc2)CC1
0.129 µM	CN1CCN(C(=O)N[C@@H](Cc2ccccc2)C(=O)N[C@@H](CCCNC(=N)N)CSS(=O)(=O)c2ccc([N+](=O)[O-])cc2)CC1
0.124 µM	COc1ccc(S(=O)(=O)SC[C@H](CCCNC(=N)N)NC(=O)[C@H](Cc2ccccc2)NC(=O)N2CCN(C)CC2)cc1
0.162 µM	Cc1ccc(S(=O)(=O)SC[C@H](CCCNC(=N)N)NC(=O)[C@H](Cc2ccccc2)NC(=O)N2CCN(C)CC2)cc1

System: not listed separately
Test: Aqueous stability of the compound in 0.1 M sodium phosphate buffer assessed as half life at pH 7 incubated under shaken condition by HPLC analysis
Type: physicochemical

half-life	SMILES
24 h	COc1ccc(S(=O)(=O)SC[C@H](CCc2ccccc2)NC(=O)[C@H](Cc2ccccc2)NC(=O)N2CCN(C)CC2)cc1.O=C(O)C(F)(F)F
